# Data as given in US8987250B2 (Gilead Sciences, Inc., priority 2012, dated 2015).
# Test system: HIV-IIIb
# Experiment: Test A: Antiviral Assay in MT4 Cells
# Format: cell-based
# Conditions: Human immunodeficiency virus 1, IIIB, MT4, 120 h, Table 1; MT-4 cells infected with HIV-IIIb, 5 days of incubation, CellTiter-Glo; read-out: EC50
# Description: The antiviral properties of a compound of the invention may be determined using Test A described below.
# Test A: Antiviral Assay in MT4 Cells
# For the antiviral assay utilizing MT-4 cells, 0.4 μL of […] test concentration of 3-fold serially diluted compound in DMSO was added to 40 μL of cell growth medium (RPMI 1640, 10% FBS, 1% penicilline/Streptomycine, 1% L-Glutamine, 1% HEPES) in each well of 384-well assay plates (10 concentrations) in quadruplicate.
# One mL aliquots of 2×10e6 MT-4 cells were pre-infected for 1 and 3 hours respectively, @ 37° C. with 25 uL (MT4) or of either cell growth medium (mock-infected) or a fresh 1:250 dilution of an HIV-IIIb concentrated ABI stock (0.004m.o.i. for MT4 cells). Infected and uninfected cells were diluted in cell growth medium and 35 uL of 2000 (for MT4) cells was added to each well of the assay plates.
# Assay plates were then incubated in a 37° C. incubator. After 5 days of incubation, […] of 2× concentrated CellTiter-Glo™ Reagent (catalog #G7573, Promega Biosciences, Inc., Madison, Wis.) was added to each well of the assay plate. Cell lysis was carried out by incubating at room temperature for 2-3 min and then chemiluminescence was read using the Envision reader (PerkinElmer). […]
row,EC50,SMILES
1,16 nM,Cc1cc2nc(-c3ccnc(-c4cnn(C)c4)c3)sc2c(-c2ccc(Cl)cc2)c1[C@H](OC(C)(C)C)C(=O)O [Compound 154]
2,66 nM,Cc1cc2nc(-c3ccnc(-c4cccc(C(N)=O)c4)c3)sc2c(-c2ccc(Cl)cc2)c1[C@H](OC(C)(C)C)C(=O)O [Compound 155]
3,26 nM,Cc1cc2nc(-c3ccnc(-c4cccc(C#N)c4)c3)sc2c(-c2ccc(Cl)cc2)c1[C@H](OC(C)(C)C)C(=O)O [Compound 156]
4,29 nM,Cc1cc2nc(-c3cncc(-c4ccc5c(c4)ncn5C)c3)sc2c(-c2ccc(Cl)cc2)c1[C@H](OC(C)(C)C)C(=O)O [Compound 157]
5,46 nM,Cc1cc2nc(-c3cccc(-c4ccnn4C)c3)sc2c(-c2ccc(Cl)cc2)c1[C@H](OC(C)(C)C)C(=O)O [Compound 159]
6,136 nM,COc1ncccc1-c1cccc(-c2nc3cc(C)c([C@H](OC(C)(C)C)C(=O)O)c(-c4ccc(Cl)cc4)c3s2)c1 [Compound 160]
7,116 nM,COc1ccncc1-c1cccc(-c2nc3cc(C)c([C@H](OC(C)(C)C)C(=O)O)c(-c4ccc(Cl)cc4)c3s2)c1 [Compound 161]
8,350 nM,Cc1cc2nc(-c3cccc(-c4ccccc4)c3F)sc2c(-c2ccc(Cl)cc2)c1[C@H](OC(C)(C)C)C(=O)O [Compound 162]
9,33 nM,Cc1cc2nc(-c3cccc(-c4ccc5c(cnn5C)c4)c3)sc2c(-c2ccc3c(c2)C(=O)CCO3)c1[C@H](OC(C)(C)C)C(=O)O [Compound 169]
10,35 nM,Cc1cc2nc(-c3cccc(-c4ccc5c(cnn5C)c4)c3)sc2c(-c2ccc3c(c2)CCCO3)c1[C@H](OC(C)(C)C)C(=O)O [Compound 170]

# Same assay, conditions: Human immunodeficiency virus 1, IIIB, MT4, 120 h, Table 2; MT-4 cells infected with HIV-IIIb, 5 days of incubation, CellTiter-Glo; read-out: EC50
row,SMILES,EC50
1,"CCn1cc2cc(-c3cc(-c4nc5cc(C)c([C@H](OC(C)(C)C)C(=O)O)c(-c6ccc(Cl)cc6)c5s4)ccn3)ccc2n1 [Compound 173, (S)-2-tert-butoxy-2-(7-(4-chlorophenyl)-2-(2-(2-ethyl-2H-indazol-5-yl)pyridin-4-yl)-5-methylbenzo[d]thiazol-6-yl)acetic acid]",11 nM
2,"CCn1ncc2cc(-c3cc(-c4nc5cc(C)c([C@H](OC(C)(C)C)C(=O)O)c(-c6ccc(Cl)cc6)c5s4)ccn3)ccc21 [Compound 174, (S)-2-tert-butoxy-2-(7-(4-chlorophenyl)-2-(2-(1-ethyl-1H-indazol-5-yl)pyridin-4-yl)-5-methylbenzo[d]thiazol-6-yl)acetic acid]",26 nM
3,"Cc1cc2nc(-c3ccnc(-c4ccc5c(cnn5C5CC5)c4)c3)sc2c(-c2ccc(Cl)cc2)c1[C@H](OC(C)(C)C)C(=O)O [Compound 175, (S)-2-tert-butoxy-2-(7-(4-chlorophenyl)-2-(2-(1-cyclopropyl-1H-indazol-5-yl)pyridin-4-yl)-5-methylbenzo[d]thiazol-6-yl)acetic acid]",33 nM
4,"Cc1cc2nc(-c3ccnc(-c4ccc5nn(C(F)F)cc5c4)c3)sc2c(-c2ccc(Cl)cc2)c1[C@H](OC(C)(C)C)C(=O)O [Compound 176, (S)-2-tert-butoxy-2-(7-(4-chlorophenyl)-2-(2-(2-(difluoromethyl)-2H-indazol-5-yl)pyridin-4-yl)-5-methylbenzo[d]thiazol-6-yl)acetic acid]",18 nM
5,"Cc1cc2nc(-c3ccnc(-c4ccc5c(cnn5C(F)F)c4)c3)sc2c(-c2ccc(Cl)cc2)c1[C@H](OC(C)(C)C)C(=O)O [Compound 177, (S)-2-tert-butoxy-2-(7-(4-chlorophenyl)-2-(2-(1-(difluoromethyl)-1H-indazol-5-yl)pyridin-4-yl)-5-methylbenzo[d]thiazol-6-yl)acetic acid]",39 nM
6,"Cc1cc2nc(-c3ccnc(-c4ccc5c(cnn5C(F)(F)F)c4)c3)sc2c(-c2ccc(Cl)cc2)c1[C@H](OC(C)(C)C)C(=O)O [Compound 178, (S)-2-tert-butoxy-2-(7-(4-chlorophenyl)-5-methyl-2-(2-(1-(trifluoromethyl)-1H-indazol-5-yl)pyridin-4-yl)benzo[d]thiazol-6-yl)acetic acid]",89 nM
7,"Cc1cc2nc(-c3ccnc(-c4ccc5c(cnn5C5CNC5)c4)c3)sc2c(-c2ccc(Cl)cc2)c1[C@H](OC(C)(C)C)C(=O)O [Compound 179, (S)-2-(2-(2-(1-(azetidin-3-yl)-1H-indazol-5-yl)pyridin-4-yl)-7-(4-chlorophenyl)-5-methylbenzo[d]thiazol-6-yl)-2-tert-butoxyacetic acid]",73 nM
8,"Cc1cc2nc(-c3ccnc(-c4ccc5c(cnn5C)n4)c3)sc2c(-c2ccc(Cl)cc2)c1[C@H](OC(C)(C)C)C(=O)O [Compound 180, (S)-2-tert-butoxy-2-(7-(4-chlorophenyl)-5-methyl-2-(2-(1-methyl-1H-pyrazolo[4,3-b]pyridin-5-yl)pyridin-4-yl)benzo[d]thiazol-6-yl)acetic acid]",5 nM
9,"Cc1cc2c(c(-c3ccc(Cl)cc3)c1[C@H](OC(C)(C)C)C(=O)O)n(C1CCN(C)CC1)c(=O)n2C [Compound 181, (S)-2-tert-butoxy-2-(4-(4-chlorophenyl)-1,6-dimethyl-3-(1-methylpiperidin-4-yl)-2-oxo-2,3-dihydro-1H-benzo[d]imidazol-5-yl)acetic acid]",27 nM
10,"Cc1cc2nc(-c3cccn(-c4ccc5c(cnn5C)c4)c3=O)sc2c(-c2ccc(Cl)cc2)c1[C@H](OC(C)(C)C)C(=O)O [Compound 182, (S)-2-tert-butoxy-2-(7-(4-chlorophenyl)-5-methyl-2-(1-(1-methyl-1H-indazol-5-yl)-2-oxo-1,2-dihydropyridin-3-yl)benzo[d]thiazol-6-yl)acetic acid]",80 nM
11,"Cc1cc2nc(-c3ccnc(-c4ccc5c(c4)n(C)c(=O)n5C)c3)sc2c(-c2ccc(Cl)cc2)c1[C@H](OC(C)(C)C)C(=O)O [Compound 183, (S)-2-tert-butoxy-2-(7-(4-chlorophenyl)-2-(2-(1,3-dimethyl-2-oxo-2,3-dihydro-1H-benzo[d]imidazol-5-yl)pyridin-4-yl)-5-methylbenzo[d]thiazol-6-yl)acetic acid]",18 nM
12,"Cc1cc2nc(-c3ccnc(-c4cnc5c(c4)OCC(=O)N5)c3)sc2c(-c2ccc(Cl)cc2)c1[C@H](OC(C)(C)C)C(=O)O [Compound 184, (S)-2-tert-butoxy-2-(7-(4-chlorophenyl)-5-methyl-2-(2-(3-oxo-3,4-dihydro-2H-pyrido[3,2-b][1,4]oxazin-7-yl)pyridin-4-yl)benzo[d]thiazol-6-yl)acetic acid]",19 nM
13,"Cc1cc2nc(-c3ccnc(-n4ccc5cccnc5c4=O)c3)sc2c(-c2ccc(Cl)cc2)c1[C@H](OC(C)(C)C)C(=O)O [Compound 187, (S)-2-tert-butoxy-2-(7-(4-chlorophenyl)-5-methyl-2-(2-(8-oxo-1,7-naphthyridin-7(8H)-yl)pyridin-4-yl)benzo[d]thiazol-6-yl)acetic acid]",25 nM
14,"Cc1cc2nc(-c3ccnc(-c4ccc5c(=O)n(C)n(C)c5c4)c3)sc2c(-c2ccc(Cl)cc2)c1[C@H](OC(C)(C)C)C(=O)O [Compound 188, (S)-2-tert-butoxy-2-(7-(4-chlorophenyl)-2-(2-(1,2-dimethyl-3-oxo-2,3-dihydro-1H-indazol-6-yl)pyridin-4-yl)-5-methylbenzo[d]thiazol-6-yl)acetic acid]",12 nM
15,"Cc1cc2nc(-c3ccnc(-n4ncc5ccccc54)c3)sc2c(-c2ccc(Cl)cc2)c1[C@H](OC(C)(C)C)C(=O)O [Compound 189, (S)-2-(2-(2-(1H-indazol-1-yl)pyridin-4-yl)-7-(4-chlorophenyl)-5-methylbenzo[d]thiazol-6-yl)-2-tert-butoxy acetic acid]",249 nM
16,"Cc1cc2nc(-c3ccnc(-c4nn(C)c5ccccc45)c3)sc2c(-c2ccc(Cl)cc2)c1[C@H](OC(C)(C)C)C(=O)O [Compound 190, (S)-2-tert-butoxy-2-(7-(4-chlorophenyl)-5-methyl-2-(2-(1-methyl-1H-indazol-3-yl)pyridin-4-yl)benzo[d]thiazol-6-yl)acetic acid]",112 nM
17,"Cc1cc2nc(-c3ccnc(-c4ccc5c(ccc(=O)n5C)c4)c3)sc2c(-c2ccc(Cl)cc2)c1[C@H](OC(C)(C)C)C(=O)O [Compound 191, (S)-2-tert-butoxy-2-(7-(4-chlorophenyl)-5-methyl-2-(2-(1-methyl-2-oxo-1,2-dihydroquinolin-6-yl)pyridin-4-yl)benzo[d]thiazol-6-yl)acetic acid]",10 nM
18,"CNc1ccc2cc(-c3cc(-c4nc5cc(C)c([C@H](OC(C)(C)C)C(=O)O)c(-c6ccc(Cl)cc6)c5s4)ccn3)ccc2n1 [Compound 192, (S)-2-tert-butoxy-2-(7-(4-chlorophenyl)-5-methyl-2-(2-(2-(methylamino)quinolin-6-yl)pyridin-4-yl)benzo[d]thiazol-6-yl)acetic acid]",12 nM
19,"Cc1cc2nc(-c3ccnc(-c4ccc5nc(N)ccc5c4)c3)sc2c(-c2ccc(Cl)cc2)c1[C@H](OC(C)(C)C)C(=O)O [Compound 193, (S)-2-(2-(2-(2-aminoquinolin-6-yl)pyridin-4-yl)-7-(4-chlorophenyl)-5-methylbenzo[d]thiazol-6-yl)-2-tert-butoxyacetic acid]",9 nM
20,"Cc1cc2nc(-c3ccc4c(=O)n(C)n(C)c4c3)sc2c(-c2ccc(Cl)cc2)c1[C@H](OC(C)(C)C)C(=O)O [Compound 194, (S)-2-tert-butoxy-2-(7-(4-chlorophenyl)-2-(1,2-dimethyl-3-oxo-2,3-dihydro-1H-indazol-6-yl)-5-methylbenzo[d]thiazol-6-yl)acetic acid]",21 nM
